Source: US20100317647A1 (priority 2009, published 2010)
pIC50: −log10 of the molar value.

Target: human Cat S (Homo sapiens, UniProt P25774)
Test: Cathepsin enzyme inhibition assay (fluorogenic peptide substrate cleavage)
Type: biochemical
Conditions: human Cat S 1 nM; substrate Z-Val-Val-Arg-AMC 20 μM; pH 6.5; fluorescence over 20 minutes
Experimental: Cathepsin Enzyme Inhibition Assay
Enzyme activity is measured by observing the increase in fluorescence intensity caused by cleavage of a peptide substrate containing a fluorophore whose emission is quenched in the intact peptide.
Assay buffer: 100 mM potassium phosphate pH 6.5, EDTA-Na 5 mM, Triton X-100 0.001%, DTT 5 mM. Enzymes (all at 1 nM): human and mouse Cathepsin S, Cat K, Cat B, Cat L. Substrate (20 μM): Z-Val-Val-Arg-AMC, except for Cat K which uses Z-Leu-Arg-AMC (both from Bachem).
AMC=7-Amino-4-Methyl-Coumarin.
DTT=dithiothreitol. Final volume: 100 μL.
Excitation 360 nm, Emission 465 nm.
Enzyme is added to the substance dilutions in 96-well microtitre plates and the reaction is started with substrate. Fluorescence emission is measured over 20 minutes, during which time a linear increase is observed in the absence of inhibitor. IC50 are calculated by standard methods. Inhibition of human Cat S, mouse Cat S, human Cat K, mouse Cat K, human Cat B, mouse Cat B, human Cat L and mouse Cat L have been measured separately. The results obtained for human Cat S are expressed in the following table.

Chain of human Cat S (P25774 115-331): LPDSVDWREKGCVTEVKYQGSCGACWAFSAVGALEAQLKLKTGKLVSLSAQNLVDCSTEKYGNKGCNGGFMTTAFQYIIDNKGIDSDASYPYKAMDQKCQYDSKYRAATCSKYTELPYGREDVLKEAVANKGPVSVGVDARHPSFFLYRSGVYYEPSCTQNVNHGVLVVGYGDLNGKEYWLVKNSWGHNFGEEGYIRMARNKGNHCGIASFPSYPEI

SMILES | pIC50
N#CCNC(=O)[C@@H]1C[C@@H](S(=O)(=O)c2ccccc2Cl)C[C@H]1O (racemic) [Example 49, (1R,2R,4R) and (1S,2S,4S)-4-(2-Chloro-benzenesulfonyl)-2-hydroxy-cyclopentanecarboxylic acid cyanomethyl-amide] | 7.08
CC(C)(C#N)NC(=O)[C@@H]1C[C@@H](S(=O)(=O)c2ccccc2)C[C@H]1C(=O)N1CCOCC1 [Example 34, (1R,2R,4R)-4-Benzenesulfonyl-2-(morpholine-4-carbonyl)-cyclopentanecarboxylic acid (cyano-dimethyl-methyl)-amide] | 8.60
Cc1cc(-c2cccc(S(=O)(=O)[C@@H]3C[C@@H](C(=O)NC4(C#N)CC4)[C@H](C(=O)N4CCC(F)(F)C4)C3)c2)ccn1 [Example 203, (1R,2R,4R)-2-(3,3-Difluoro-pyrrolidine-1-carbonyl)-4-[3-(2-methyl-pyridin-4-yl)-benzenesulfonyl]-cyclopentanecarboxylic acid (1-cyano-cyclopropyl)-amide] | 9.71
CC(C)O[C@@H]1C[C@H](S(=O)(=O)c2ccc(Br)cc2C(F)(F)F)C[C@H]1C(=O)NC1(C#N)CC1 (racemic) [Example 112, (1R,2R,4R) and (1S,2S,4S)-4-(4-Bromo-2-trifluoromethyl-benzenesulfonyl)-2-isopropoxy-cyclopentanecarboxylic acid (1-cyano-cyclopropyl)-amide] | 9.22
N#CC1(NC(=O)[C@@H]2C[C@@H](S(=O)(=O)c3cccc(Br)c3)C[C@H]2C(=O)N2CCC(F)(F)C2)CC1 [Example 188, (1R,2R,4R)-4-(3-Bromo-benzenesulfonyl)-2-(3,3-difluoro-pyrrolidine-1-carbonyl)-cyclopentanecarboxylic acid (1-cyano-cyclopropyl)-amide] | 9.01
N#CCNC(=O)[C@@H]1C[C@@H](S(=O)(=O)c2ccc(F)c(Cl)c2)C[C@H]1C(=O)N1CCOCC1 [Example 7, (1R,2R,4R)-4-(3-Chloro-4-fluoro-benzenesulfonyl)-2-(morpholine-4-carbonyl)-cyclopentanecarboxylic acid cyanomethyl-amide] | 9.15
N#CCNC(=O)[C@@H]1C[C@@H](S(=O)(=O)c2ccccc2C(F)(F)F)C[C@H]1C(=O)N1CCOCC1 [Example 37, (1R,2R,4R)-2-(Morpholine-4-carbonyl)-4-(2-trifluoromethyl-benzenesulfonyl)-cyclopentanecarboxylic acid cyanomethyl-amide] | 9.05
CO[C@H]1C[C@@H](S(=O)(=O)c2ccc(-n3cc(CCO)nn3)cc2C(F)(F)F)C[C@@H]1C(=O)NC1(C#N)CC1 (racemic) [Example 253, (1S,2S,4S) and (1R,2R,4R)-4-{4-[4-(2-Hydroxy-ethyl)-[1,2,3]triazol-1-yl]-2-trifluoromethyl-benzenesulfonyl}-2-methoxy-cyclopentanecarboxylic acid (1-cyano-cyclopropyl)-amide] | 9.17
N#CC1(NC(=O)[C@@H]2C[C@@H](S(=O)(=O)c3ccc(Br)cc3C(F)(F)F)C[C@H]2OC2CCS(=O)(=O)CC2)CC1 (racemic) [Example 181, (1R,2R,4R) and (1S,2S,4S)-4-(4-Bromo-2-trifluoromethyl-benzenesulfonyl)-2-[(tetrahydro-1,1-dioxo-2H-thiopyran-4-yl)oxy]-cyclopentanecarboxylic acid (1-cyano-cyclopropyl)-amide] | 8.88
N#CC1(NC(=O)[C@@H]2C[C@@H](S(=O)(=O)c3cccc(-c4ccnc(Cl)c4)c3)C[C@H]2C(=O)N2CCC(F)(F)C2)CC1 [Example 204, (1R,2R,4R)-4-[3-(2-Chloro-pyridin-4-yl)-benzenesulfonyl]-2-(3,3-difluoro-pyrrolidine-1-carbonyl)-cyclopentanecarboxylic acid (1-cyano-cyclopropyl)-amide] | 9.87
CO[C@@H]1C[C@H](S(=O)(=O)c2ccc(Cl)cc2Cl)C[C@H]1C(=O)NCC#N (racemic) [Example 51, (1R,2R,4R) and (1S,2S,4S)-4-(2,4-Dichloro-benzenesulfonyl)-2-methoxy-cyclopentanecarboxylic acid cyanomethyl-amide] | 7.70
N#CC1(NC(=O)[C@@H]2C[C@@H](S(=O)(=O)c3ccccc3)C[C@H]2C(=O)N2CCC2)CC1 [Example 24, (1R,2R,4R)-2-(Azetidine-1-carbonyl)-4-benzenesulfonyl-cyclopentanecarboxylic acid (1-cyan o-cyclopropyl)-amide] | 8.02
C[C@H](Oc1ccc(S(=O)(=O)[C@H]2CC[C@H](C(=O)NCC#N)C2)c(Cl)c1)C(F)(F)F (racemic) [Example 80, (1S,3S)-3-[2-Chloro-4-(2,2,2-trifluoro-1-methyl-ethoxy)-benzenesulfonyl]-cyclopentanecarboxylic acid cyanomethyl-amide (epimeric mixture of racemate)] | 5.99
CO[C@@H]1C[C@H](S(=O)(=O)c2ccc(OCC(F)(F)F)cc2Cl)C[C@H]1C(=O)NC1(C#N)CC1 (racemic) [Example 65, (1R,2R,4R) and (1S,2S,4S)-4-[2-Chloro-4-(2,2,2-trifluoro-ethoxy)-benzenesulfonyl]-2-methoxy-cyclopentanecarboxylic acid (1-cyano-cyclopropyl)-amide] | 8.10
N#CC1(NC(=O)[C@@H]2C[C@@H](S(=O)(=O)c3ccc(N4CCN(C5CC5)CC4)cc3Cl)C[C@H]2C(=O)N2CCC(F)(F)C2)CC1 [Example 191, (1R,2R,4R)-4-[2-Chloro-4-(4-cyclopropyl-piperazin-1-yl)-benzenesulfonyl]-2-(3,3-difluoro-pyrrolidine-1-carbonyl)-cyclopentanecarboxylic acid (1-cyano-cyclopropyl)-amide] | 9.24
Cc1cc(-c2ccc(S(=O)(=O)[C@@H]3C[C@@H](C(=O)NC4(C#N)CC4)[C@H](C(=O)N4CCC(F)(F)C4)C3)c(Cl)c2)ccn1 [Example 198, (1R,2R,4R)-4-[2-Chloro-4-(2-methyl-pyridin-4-yl)-benzenesulfonyl]-2-(3,3-difluoro-pyrrolidine-1-carbonyl)-cyclopentanecarboxylic acid (1-cyano-cyclopropyl)-amide] | 9.87
CCN1CCN(c2ccc(S(=O)(=O)[C@H]3CC[C@H](C(=O)NC4(C#N)CC4)C3)c(Cl)c2)CC1 (racemic) [Example 97, (1S,3S) and (1R,3R)-3-[2-chloro-4-(4-ethyl-piperazin-1-yl)-benzenesulfonyl]-cyclopentanecarboxylic acid (1-cyano-cyclopropyl)-amide] | 6.80
N#CC1(NC(=O)[C@@H]2C[C@@H](S(=O)(=O)c3ccc(N4CC5(COC5)C4)cc3C(F)(F)F)C[C@H]2C(=O)N2CC(F)(F)C2)CC1 [Example 133, (1R,2R,4R)-2-(3,3-Difluoro-azetidine-1-carbonyl)-4-[4-(2-oxa-6-aza-spiro[3.3]hept-6-yl)-2-trifluoromethyl-benzenesulfonyl]-cyclopentanecarboxylic acid (1-cyano-cyclopropyl)-amide] | 9.30
N#CC1(NC(=O)[C@@H]2C[C@H](S(=O)(=O)c3ccccc3Cl)C[C@H]2COc2ccc(Cl)cc2)CC1 (single isomer, unassigned) [Example 71] | 5.51
CCOC1CN(C(=O)[C@@H]2C[C@H](S(=O)(=O)c3ccccc3)C[C@H]2C(=O)NC2(C#N)CC2)C1 [Example 21, (1R,2R,4R)-4-Benzenesulfonyl-2-(3-ethoxy-azetidine-1-carbonyl)-cyclopentanecarboxylic acid (1-cyano-cyclopropyl)-amide] | 8.31
N#CC1(NC(=O)[C@@H]2C[C@@H](S(=O)(=O)c3ccccc3Cl)C[C@H]2Oc2ccc(Cl)cc2)CC1 (racemic) [Example 243, (1R,2R,4R) and (1S,2S,4S)-4-(2-Chloro-benzenesulfonyl)-2-(4-chloro-phenoxy)-cyclopentanecarboxylic acid (1-cyano-cyclopropyl)-amide] | 8.84
CO[C@@H]1C[C@H](S(=O)(=O)c2ccc(N3CCN(C(C)=O)CC3)cc2C(F)(F)F)C[C@H]1C(=O)NC1(C#N)CC1 (racemic) [Example 217, (1R,2R,4R) and (1S,2S,4S)-4-[4-(4-Acetyl-piperazin-1-yl)-2-trifluoromethyl-benzenesulfonyl]-2-methoxy-cyclopentanecarboxylic acid (1-cyano-cyclopropyl)-amide] | 8.99
N#CCNC(=O)[C@@H]1C[C@@H](S(=O)(=O)c2ccc(F)cc2F)C[C@H]1C(=O)N1CCOCC1 [Example 6, (1R,2R,4R)-4-(2,4-Difluoro-benzenesulfonyl)-2-(morpholine-4-carbonyl)-cyclopentanecarboxylic acid cyanomethyl-amide] | 9.10
Cc1cc(Cl)ccc1S(=O)(=O)[C@H]1C[C@@H](C(=O)N2CCOCC2)[C@H](C(=O)N2CCC[C@H]2C#N)C1 [Example 44, (S)-1-[(1R,2R,4S)-4-(4-Chloro-2-methyl-benzenesulfonyl)-2-(morpholine-4-carbonyl)-cyclopentanecarbonyl]-pyrrolidine-2-carbonitrile] | 5.89
COCCn1cc(-c2ccc(S(=O)(=O)[C@H]3C[C@@H](OC)[C@H](C(=O)NC4(C#N)CC4)C3)c(C(F)(F)F)c2)cn1 (racemic) [Example 172, (1R,2R,4R) and (1S,2S,4S)-2-Methoxy-4-{4-[1-(2-methoxy-ethyl)-1H-pyrazol-4-yl]-2-trifluoromethyl-benzenesulfonyl}-cyclopentanecarboxylic acid (1-cyano-cyclopropyl)-amide] | 9.36
